Laboratory results as given in patent publication US20240059685A1, “PIEZO1 AGONISTS FOR THE PROMOTION OF BONE FORMATION” (BIOVENTURES, LLC, priority 2019, published 2024).

How the values were obtained:
[1] = system: osteocyte-enriched cortical bone; assay: Wnt1 expression in tibia after one Yoda1 injection; format: in vivo; settings: 4-month-old female C57BL/6J mice, one injection 5 μmol/kg intraperitoneally, tibiae 4 hours later
Experimental: To quantify cancellous bone formation, we injected mice with calcein (20 mg/kg body weight) intraperitoneally 7 and 3 days before harvest. To quantify periosteal and endocortical bone formation, we injected mice with calcein (20 mg/kg body weight) and Alizarin Red (20 mg/kg body weight) 10 and 3 days before harvest. For gene expression, we injected Yoda1 into 4-month-old female C57BL/6J mice one time and harvested tibiae 4 hours later for RNA extraction. For bone mass evaluation, we injected Yoda1 into 4-month-old female C57BL/6J mice 5 consecutive days per week for 2 weeks (day 1-5 and day 8-12) and harvested the mice at day 15 for analysis. […]
Quantitative PCR. […] We performed quantitative RT-PCR using the following Taqman assays from Applied Biosystems: Piezo1 (Mm01241549_m1); Piezo2 (Mm01265861_m1); Ptgs2 (Mm00478374_m1); Cyr61 (Mm00487498_m1); Wnt1 (Mm01300-555_g1); Yap1 (Mm011432-63_m1); Taz (Mm01289583_m1); Tnfsf11 Mm00441906_m1; Tnfrsf11b (Mm00435452_m1); Sost (Mm00470479_m1); and ribosomal protein S2 (Mrps2) (Mm00475529_m1). We calculated relative mRNA amounts using the ΔCt method (Livak and Schmittgen, 2001). […] We obtained two custom Taqman assays from Applied Biosystems for quantifying Piezo1 gene deletion efficiency: one specific for sequences between the loxP sites and the other specific for sequences downstream from the 3′ loxP site.

[2] = system: C57BL/6J mice; assay: In vivo bone mass evaluation by μCT and body weight after 2 weeks of administration; settings: 4-month-old female C57BL/6J mice, 5 μmol/kg intraperitoneally, 5 days per week for 2 weeks
Experimental: To quantify cancellous bone formation, we injected mice with calcein (20 mg/kg body weight) intraperitoneally 7 and 3 days before harvest. To quantify periosteal and endocortical bone formation, we injected mice with calcein (20 mg/kg body weight) and Alizarin Red (20 mg/kg body weight) 10 and 3 days before harvest. For gene expression, we injected Yoda1 into 4-month-old female C57BL/6J mice one time and harvested tibiae 4 hours later for RNA extraction. For bone mass evaluation, we injected Yoda1 into 4-month-old female C57BL/6J mice 5 consecutive days per week for 2 weeks (day 1-5 and day 8-12) and harvested the mice at day 15 for analysis. Yoda1 (Sigma, St. Louis, MO) was dissolved in DMSO at 40 mM as a stock, diluted in 5% ethanol, and injected intraperitoneally at 5 μmol/kg body weight. Mice were rank-ordered by body weight and then assigned to Veh or Yoda1 groups to give identical group means. All investigators involved in data collection were blinded as to the genotype and group of the mice.
Skeletal analysis. Tibial X-rays were obtained using an UltraFocus X-ray machine (Faxitron Bioptics, Tucson, Arizona) and BMD of the lumbar spine and femur were measured by dual-energy X-ray absorptiometry using a PIXImus Densitometer (GE-Lunar Corp.) Three dimensional bone volume and architecture of L4 vertebra, femur, and tibia were measured by μCT (model μCT40, Scanco Medical, Wayne, PA). The femur, vertebrae (L4), or tibia, were cleaned of soft tissues and fixed in 10% Millonig's formalin for 24 hours. Bone were then gradually dehydrated into 100% ethanol. Bone samples were loaded into a 12.3 mm diameter scanning tube and images acquired in the μCT40. The scans were integrated into 3D voxel images (1024×1024 pixel matrices for each individual planar stack) and a Gaussian filter (sigma=0.8, support=1) was used to reduce signal noise. Scanco Eval Program v.6.0 was used for measuring bone volume. A threshold of 220 mg/cm^3 was applied to all scans at medium resolution (E=55 kVp, I=145 μA, integration time=200 ms) for trabecular bone measurements. The cortical bone and the primary spongiosa were manually excluded from the analysis. Trabecular bone measurements at the distal femur were made on 151 slices beginning 8-10 slices away from the growth plate and proceeding proximally. […] All trabecular measurements were made by drawing contours every 10 to 20 slices and voxel counting was used for bone volume per tissue volume and sphere filling distance transformation indices, without pre-assumptions about the bone shape as a rod or plate for trabecular microarchitecture. Femoral cortical thickness, periosteal circumference, and endocortical circumference were measured at the mid-diaphysis. For tibial cortical thickness, we analyzed 18 slices 5 mm proximal from the distal tibiofibular junction. Vertebral cortical bone thickness was determined on the ventral cortical wall using contours of cross-sectional images, drawn to exclude trabecular bone. Cortical analysis were measured at a threshold of 260 mg/cm^3. Calibration and quality control were performed weekly using five density standards and spatial resolution was verified monthly using a tungsten wire rod. We based beam-hardening correction on the calibration records. Corrections for 200 mg hydroxyapatite were made for all energies.

[3] = system: femoral cortical bone; assay: Ex vivo femoral cortical bone organ culture, qPCR; format: cell-based; settings: cortical bone organ culture from 5-week-old mice, 10 μM, 4 hours, vs DMSO
Experimental: Femoral organ culture. Female mice at 5 weeks of age were euthanized in a CO2 chamber. Femurs were dissected and both ends were removed in a culture hood. Bone marrow was then flushed out using PBS and the periosteal surface was scraped to remove periosteal cells. Femoral shafts were then cultured in a 12-well-plate with 1 ml of α-MEM supplemented with 10% FBS and 1% penicillin/streptomycin/glutamine for 24 hours. We then treated femur shafts with 10 μM Yoda1 (Sigma, St. Louis, MO) or DMSO for 4 hours. Femur shafts were then collected for RNA isolation and qPCR analysis. Ex vivo femoral organ culture was repeated twice with three biological replicates.
Quantitative PCR. Organs and whole bones were harvested from animals, removed of soft tissues, and stored immediately in liquid nitrogen. We prepared osteocyte-enriched bone by removing the ends of femurs and tibias and then flushing the bone marrow with PBS. We then scraped the bone surface with a scalpel and froze them in liquid nitrogen for later RNA isolation, or decalcified them for genomic DNA isolation. We isolated total RNA using TRIzol (Life technologies, NY), according to the manufacturer's instructions and prepared cDNA using High Capacity first strand cDNA synthesis kit (Life Technologies). We performed quantitative RT-PCR using the following Taqman assays from Applied Biosystems: Piezo1 (Mm01241549_m1); Piezo2 (Mm01265861_m1); Ptgs2 (Mm00478374_m1); Cyr61 (Mm00487498_m1); Wnt1 (Mm01300-555_g1); Yap1 (Mm011432-63_m1); Taz (Mm01289583_m1); Tnfsf11 Mm00441906_m1; Tnfrsf11b (Mm00435452_m1); Sost (Mm00470479_m1); and ribosomal protein S2 (Mrps2) (Mm00475529_m1). We calculated relative mRNA amounts using the ΔCt method (Livak and Schmittgen, 2001). We isolated genomic DNA from decalcified cortical bone after digestion with proteinase K and phenol/chloroform extraction. We obtained two custom Taqman assays from Applied Biosystems for quantifying Piezo1 gene deletion efficiency: one specific for sequences between the loxP sites and the other specific for sequences downstream from the 3′ loxP site.

`Clc1cccc(Cl)c1CSc1nnc(-c2cnccn2)s1` [Yoda1] was tested. Which “Wnt1 expression in osteocyte-enriched cortical bone in vivo” value [1] did it give?
The value was “increased”.

And the body weight [2]?
The body weight was “did not alter”.

What about the “cancellous bone mass in the distal femur” value [2] of the same compound?
The value was “increased”.

And the “cancellous bone volume in vertebrae” value [2]?
The value was “did not detect changes”.

And the “cortical thickness in the distal femur” value [2]?
Its value is “increased”.

What about the “cortical thickness in the vertebra” value [2] of the same compound?
The value was “increased”.

What about the Cyr61 expression [3] of the same compound?
The Cyr61 expression was “promoted expression”.

And the Ptgs2 expression [3]?
The Ptgs2 expression was “promoted expression”.

What about the Sost expression [3] of the same compound?
The Sost expression was “decreased”.

And the Tnfrsf11b expression [3]?
Its Tnfrsf11b expression is “promoted expression”.

What about the Wnt1 expression [3] of the same compound?
The Wnt1 expression was “promoted expression”.
